Assay results reported in ChEMBL document CHEMBL3885861, “Open TG-GATES”.

Species: Rattus norvegicus
Experiment: Open TG-GATES - Regimen: Daily Repeat
Assay type: toxicity, organism-based, Sprague-Dawley
Set-up: regimen Daily Repeat, gender Male, age 6 weeks
Settings: in vivo, po, route gavage; for APTT / Bas / Eos / Fbg / Hb / Ht / Lym / MCH / MCHC / MCV / Mono / Neu / PT / Plat / RBC / Ret / WBC: tissue Blood; for KIDNEY_L / KIDNEY_R / KIDNEY_TOTAL: tissue Kidney; for LIVER: tissue Liver; for A/G / ALP / ALT / AST / BUN / CRE / Ca / Cl / DBIL / GLC / IP / K / LDH / Na / PL / RALB / TBIL / TC / TG / TP / gamma-GTP: tissue Plasma
[1] = 0 mg/kg, 72 h, dose level Control, time 3 day
[2] = 0 mg/kg, […], dose level Control, time 7 day
[3] = 0 mg/kg, […], dose level Control, time 14 day
[4] = 0 mg/kg, […], dose level Control, time 28 day
[5] = 75 mg/kg, 72 h, dose level Low, time 3 day
[6] = 75 mg/kg, […], dose level Low, time 7 day
[7] = 75 mg/kg, […], dose level Low, time 14 day
[8] = 75 mg/kg, […], dose level Low, time 28 day

## CN(C/C=C/C#CC(C)(C)C)Cc1cccc2ccccc12 [TERBINAFINE]
[1]
  TERMINAL_BW: 243.5 g
  APTT: 18.4 s
  Bas: 0.8%
  Eos: 1%
  Fbg: 227.8 mg/dL
  Hb: 13.5 g/dL
  Ht: 39.9%
  Lym: 76%
  MCH: 21.5 pg
  MCHC: 33.8%
  MCV: 63.4 fL
  Mono: 3%
  Neu: 19.2%
  PT: 11.8 s
  Plat: 117.2 x10_4/uL
  RBC: 629 x10_4/ul
  Ret: 5.9%
  WBC: 104.3 x10_2/uL
  KIDNEY_L: 1.1 g
  KIDNEY_R: 1.1 g
  KIDNEY_TOTAL: 2.2 g
  LIVER: 11.8 g
  A/G: 1.6
  ALP: 804.6 IU/L
  ALT: 34.2 IU/L
  AST: 66.8 IU/L
  BUN: 14.4 mg/dL
  CRE: 0.4 mg/dL
  Ca: 10.8 mg/dL
  Cl: 103.4 meq/L
  DBIL: 0.098 mg/dL
  GLC: 192.8 mg/dL
  IP: 7.3 mg/dL
  K: 4.2 meq/L
  LDH: 191.8 IU/L
  Na: 141.6 meq/L
  PL: 147.6 mg/dL
  RALB: 3.5 g/dL
  TBIL: 0.2 mg/dL
  TC: 74.6 mg/dL
  TG: 99.2 mg/dL
  TP: 5.6 g/dL
  gamma-GTP: 2 IU/L
[2]
  TERMINAL_BW: 279 g
  APTT: 18.7 s
  Bas: 1%
  Eos: 1%
  Fbg: 236 mg/dL
  Hb: 13.9 g/dL
  Ht: 41%
  Lym: 79.6%
  MCH: 20.8 pg
  MCHC: 33.8%
  MCV: 61.4 fL
  Mono: 2.8%
  Neu: 15.6%
  PT: 11.7 s
  Plat: 121.9 x10_4/uL
  RBC: 669.2 x10_4/ul
  Ret: 5.2%
  WBC: 118.9 x10_2/uL
  KIDNEY_L: 1.2 g
  KIDNEY_R: 1.2 g
  KIDNEY_TOTAL: 2.5 g
  LIVER: 13.3 g
  A/G: 1.5
  ALP: 874.6 IU/L
  ALT: 33.6 IU/L
  AST: 68.2 IU/L
  BUN: 15.4 mg/dL
  CRE: 0.4 mg/dL
  Ca: 10.7 mg/dL
  Cl: 102.8 meq/L
  DBIL: 0.094 mg/dL
  GLC: 201.8 mg/dL
  IP: 7.8 mg/dL
  K: 4.5 meq/L
  LDH: 212.4 IU/L
  Na: 141.8 meq/L
  PL: 140.2 mg/dL
  RALB: 3.5 g/dL
  TBIL: 0.1 mg/dL
  TC: 69.4 mg/dL
  TG: 95.8 mg/dL
  TP: 5.8 g/dL
  gamma-GTP: 0.8 IU/L
[3]
  TERMINAL_BW: 323.8 g
  APTT: 19.6 s
  Bas: 1%
  Eos: 0.8%
  Fbg: 220.4 mg/dL
  Hb: 14.7 g/dL
  Ht: 43.1%
  Lym: 84.2%
  MCH: 20.1 pg
  MCHC: 34.1%
  MCV: 59.1 fL
  Mono: 2.2%
  Neu: 12.2%
  PT: 11.5 s
  Plat: 109.6 x10_4/uL
  RBC: 729.8 x10_4/ul
  Ret: 4%
  WBC: 106.5 x10_2/uL
  KIDNEY_L: 1.2 g
  KIDNEY_R: 1.2 g
  KIDNEY_TOTAL: 2.5 g
  LIVER: 13.3 g
  A/G: 1.4
  ALP: 734.4 IU/L
  ALT: 34.8 IU/L
  AST: 67.2 IU/L
  BUN: 16 mg/dL
  CRE: 0.4 mg/dL
  Ca: 10.6 mg/dL
  Cl: 105 meq/L
  DBIL: 0.1 mg/dL
  GLC: 208.4 mg/dL
  IP: 7.2 mg/dL
  K: 3.7 meq/L
  LDH: 188.8 IU/L
  Na: 142.8 meq/L
  PL: 132.8 mg/dL
  RALB: 3.4 g/dL
  TBIL: 0.2 mg/dL
  TC: 63.6 mg/dL
  TG: 108 mg/dL
  TP: 5.8 g/dL
  gamma-GTP: 1 IU/L
[4]
  TERMINAL_BW: 389.8 g
  APTT: 20 s
  Bas: 1%
  Eos: 1.2%
  Fbg: 230.6 mg/dL
  Hb: 15.5 g/dL
  Ht: 43.8%
  Lym: 80%
  MCH: 20.4 pg
  MCHC: 35.4%
  MCV: 57.8 fL
  Mono: 2.4%
  Neu: 15.8%
  PT: 12 s
  Plat: 116.1 x10_4/uL
  RBC: 757.6 x10_4/ul
  Ret: 2.5%
  WBC: 135.2 x10_2/uL
  KIDNEY_L: 1.4 g
  KIDNEY_R: 1.4 g
  KIDNEY_TOTAL: 2.8 g
  LIVER: 15.6 g
  A/G: 1.3
  ALP: 719.6 IU/L
  ALT: 33.8 IU/L
  AST: 65.8 IU/L
  BUN: 17.6 mg/dL
  CRE: 0.5 mg/dL
  Ca: 10.5 mg/dL
  Cl: 104.4 meq/L
  DBIL: 0.092 mg/dL
  GLC: 226.4 mg/dL
  IP: 6.9 mg/dL
  K: 4 meq/L
  LDH: 224.4 IU/L
  Na: 141.8 meq/L
  PL: 129.2 mg/dL
  RALB: 3.5 g/dL
  TBIL: 0.2 mg/dL
  TC: 62.6 mg/dL
  TG: 110.2 mg/dL
  TP: 6 g/dL
  gamma-GTP: 1.4 IU/L
[5]
  TERMINAL_BW: 243.4 g
  APTT: 18.6 s
  Bas: 0.8%
  Eos: 0.8%
  Fbg: 233.4 mg/dL
  Hb: 13.4 g/dL
  Ht: 39.5%
  Lym: 80.4%
  MCH: 21.7 pg
  MCHC: 33.7%
  MCV: 64.3 fL
  Mono: 2.8%
  Neu: 15.4%
  PT: 11.5 s
  Plat: 121.6 x10_4/uL
  RBC: 615.4 x10_4/ul
  Ret: 6.2%
  WBC: 111.7 x10_2/uL
  KIDNEY_L: 1.1 g
  KIDNEY_R: 1.1 g
  KIDNEY_TOTAL: 2.1 g
  LIVER: 12.1 g
  A/G: 1.7
  ALP: 854 IU/L
  ALT: 35.2 IU/L
  AST: 67.2 IU/L
  BUN: 14.2 mg/dL
  CRE: 0.4 mg/dL
  Ca: 10.8 mg/dL
  Cl: 103.6 meq/L
  DBIL: 0.1 mg/dL
  GLC: 190.8 mg/dL
  IP: 7.3 mg/dL
  K: 4.2 meq/L
  LDH: 214.6 IU/L
  Na: 141.2 meq/L
  PL: 156 mg/dL
  RALB: 3.6 g/dL
  TBIL: 0.2 mg/dL
  TC: 80.6 mg/dL
  TG: 113.4 mg/dL
  TP: 5.7 g/dL
  gamma-GTP: 2 IU/L
[6]
  TERMINAL_BW: 274.5 g
  APTT: 19.2 s
  Bas: 1%
  Eos: 0.6%
  Fbg: 226 mg/dL
  Hb: 13.9 g/dL
  Ht: 40.6%
  Lym: 83%
  MCH: 21.7 pg
  MCHC: 34.3%
  MCV: 63.5 fL
  Mono: 2.4%
  Neu: 13.2%
  PT: 11.9 s
  Plat: 130.9 x10_4/uL
  RBC: 640.8 x10_4/ul
  Ret: 5.2%
  WBC: 112.5 x10_2/uL
  KIDNEY_L: 1.2 g
  KIDNEY_R: 1.2 g
  KIDNEY_TOTAL: 2.4 g
  LIVER: 13.1 g
  A/G: 1.6
  ALP: 944.6 IU/L
  ALT: 36.6 IU/L
  AST: 72.8 IU/L
  BUN: 16.2 mg/dL
  CRE: 0.4 mg/dL
  Ca: 10.6 mg/dL
  Cl: 103.8 meq/L
  DBIL: 0.1 mg/dL
  GLC: 188.2 mg/dL
  IP: 7.1 mg/dL
  K: 4.4 meq/L
  LDH: 217.6 IU/L
  Na: 142 meq/L
  PL: 152.8 mg/dL
  RALB: 3.6 g/dL
  TBIL: 0.2 mg/dL
  TC: 76.2 mg/dL
  TG: 112.8 mg/dL
  TP: 5.8 g/dL
  gamma-GTP: 1 IU/L
[7]
  TERMINAL_BW: 333.7 g
  APTT: 20.1 s
  Bas: 1%
  Eos: 1%
  Fbg: 219.4 mg/dL
  Hb: 14.6 g/dL
  Ht: 42.7%
  Lym: 79.8%
  MCH: 20.6 pg
  MCHC: 34%
  MCV: 60.4 fL
  Mono: 2.6%
  Neu: 15.4%
  PT: 11.3 s
  Plat: 129 x10_4/uL
  RBC: 707.4 x10_4/ul
  Ret: 4%
  WBC: 118.9 x10_2/uL
  KIDNEY_L: 1.3 g
  KIDNEY_R: 1.3 g
  KIDNEY_TOTAL: 2.5 g
  LIVER: 15.1 g
  A/G: 1.5
  ALP: 875.8 IU/L
  ALT: 36.8 IU/L
  AST: 71.4 IU/L
  BUN: 17.6 mg/dL
  CRE: 0.4 mg/dL
  Ca: 10.8 mg/dL
  Cl: 103.8 meq/L
  DBIL: 0.1 mg/dL
  GLC: 206.6 mg/dL
  IP: 7.2 mg/dL
  K: 3.8 meq/L
  LDH: 168.2 IU/L
  Na: 142.4 meq/L
  PL: 140.4 mg/dL
  RALB: 3.5 g/dL
  TBIL: 0.2 mg/dL
  TC: 65.4 mg/dL
  TG: 123 mg/dL
  TP: 5.9 g/dL
  gamma-GTP: 0.8 IU/L
[8]
  TERMINAL_BW: 399 g
  APTT: 21.8 s
  Bas: 0.8%
  Eos: 1%
  Fbg: 210.8 mg/dL
  Hb: 15 g/dL
  Ht: 42.9%
  Lym: 80.6%
  MCH: 19.7 pg
  MCHC: 34.8%
  MCV: 56.7 fL
  Mono: 2.2%
  Neu: 15%
  PT: 12.2 s
  Plat: 114.8 x10_4/uL
  RBC: 758.2 x10_4/ul
  Ret: 2.7%
  WBC: 135.9 x10_2/uL
  KIDNEY_L: 1.5 g
  KIDNEY_R: 1.6 g
  KIDNEY_TOTAL: 3.1 g
  LIVER: 17.5 g
  A/G: 1.3
  ALP: 602 IU/L
  ALT: 41.4 IU/L
  AST: 76.2 IU/L
  BUN: 17.2 mg/dL
  CRE: 0.5 mg/dL
  Ca: 10.3 mg/dL
  Cl: 104.4 meq/L
  DBIL: 0.086 mg/dL
  GLC: 223.4 mg/dL
  IP: 7.2 mg/dL
  K: 4.1 meq/L
  LDH: 230.6 IU/L
  Na: 141 meq/L
  PL: 127.2 mg/dL
  RALB: 3.4 g/dL
  TBIL: 0.2 mg/dL
  TC: 64.8 mg/dL
  TG: 87.4 mg/dL
  TP: 6.1 g/dL
  gamma-GTP: 1.2 IU/L
